Reference: patent US20090162277A1, “Lysophospholipids Solubilized Single-Walled Carbon Nanotubes” (Clemson University, priority 2005, published 2009)
Like-named read-outs stand apart in the source and are kept apart here.

How the values were obtained:
[1] = Solubility assay of SWNTs dispersed in PBS with phospholipids (optical density of supernatant); assay type: physicochemical
Text: Pristine SWNTs were synthesized using arc-deposition method. The average diameter of the SWNTs was approximately 1.4 nm measured by Raman spectroscopy and the average molecular weight of the SWNTs was 1×10^6 Dalton (Da) estimated from TEM. To measure the solubility provided by pure phospholipids, SWNTs were dispersed in phosphate buffered saline (PBS, pH=7.4) containing phospholipids of varying amounts. […] The weight ratio of solubilized SWNTs to LPC was approximately 1:10 corresponding to a molar ratio of 1:20,000 at saturation (FIG. 2b), indicating the high binding capacity of SWNTs.
Solubility Assays. Glycerol phospholipids and lysoglycerophopholipids were purchased from Avanti Polar Lipids, Inc, AL. Cell growth mediums NB and RPMI fortified with 10% FBS were obtained from Difco and Gibco (Invitrogen), respectively. SWNTs of 1 mg were placed in a series of eppendorf tubes containing lysophospholipids LPC 18:0, PC 24:0, PG 36:2, and PE 32:0 of 10, 40, 100, 400 μg and 1, 4, 10, 40 mg in 1 mL PBS solution. The eppendorf tubes were placed in a water bath and sonicated for 1 hr at room temperature. The solution was centrifuged for 3 min at 6,177 g. Approximately 0.3 mL of the supernatant was transferred into a glass cuvette and read for optical density against a blank at 360 nm. Size Exclusion Chromatography. Sepharose CL-4B beads (Sigma) having an exclusion limit molecular weight of 20×10^6 Da were used for gel filtration chromatography in a 10 mm (diameter)×150 mm (length) open column. The flow rate was produced by gravity at approximately 0.5 mL/min. Samples in 1×PBS of 40 μL were loaded onto the column with 1 M acetic acid as the mobile phase. Molecular weight markers with visible colours were used for calibration. The dark colour of the lysophospholipid dispersed SWNTs was monitored visually by comparing the elution volume with those of standard compounds. SWNT-LPC complexes were centrifuged at 16,060 g and SWNT-LPA complexes centrifuged at 6,177 g for 3 min. Their supernatants were used for size exclusion chromatography. TEM Experiment. Buffered solutions of SWNT-LPC and SWNT-LPG were sonicated for 1 min. The solutions were placed on holey carbon grids for 1 min and the excess drawn off with filter paper. The grid was negatively stained with a 2% uranyl acetate solution for 1 min. The images were recorded at magnification ranges from 400,000 to 600,000 times with the Hitach 7600 transmission electron microscope at 100 and 120 kV. Bioassay. Free lysophospholipids and micelles in SWNT-lysophospholipid solution were removed by filtration through 100 kDa Microcon (Amicon, Inc) centrifugation tubes and washed 4 times. The resulting lysophospholipid-free and micelle-free SWNT-LPC complexes were tested by […] bioassay using colon cancer (CACO-2) and macrophage (THP-1) cell lines. Each cell line was incubated in its own 8-well chamber slide (LabTek) for 48 hr at 37° C. in a CO2 incubator. Prior to treatment, cell adhesion was checked by differential interference contrast (DIC) microscopy using a Zeiss 135 Axiovert inverted microscope. Treatments ranging from 5 to 40 ppm of lysophospholipid-free and micelle-free SWNT-LPC complexes were added to each adherent cell line and incubated for 3 hr at 37° C. in a CO2 incubator. After incubation, control and treated cells were fixed with 4% paraformaldehyde for 30 min, washed in PBS and subjected to an APO-BrdU TUNEL assay (Invitrogen). This assay detects the onset of apoptosis by fluorescent detection of nuclear DNA fragments or DNA breaks. Cells were labeled with deoxythymidine analog 5-bromo-2′-deoxyuridine 5′ triphosphate (BrdUTP) followed by the addition of Alexa-Fluor 488 labeled anti-BrdU antibody. Propidium iodide was used to image the total DNA content of cells. The prepared cells were imaged using a Zeiss 510 LSM confocal fluorescence microscope.

MCF7 cells = assay: Rd-LPE translocation across cell membranes (rhodamine fluorescence imaging); assay type: cell-based; conditions: incubation 0.5 to 3.0 hours
Protocol: The SWNT lipid assemblies described above may be used to form an “optical switch” using rhodamine-lysophosphoethanolamine (Rd-LPE) and SWNTs. […] The construct of a Rd-LPE molecule and a coupled SWNT functions as a fluorescence resonance energy transfer (FRET) pair. […] FIG. 7A sets forth a control image without SWNTs. Rd-LPE was incubated with MCF7 cells for three hours. […] Images 7C through 7F show increased translocation of Rd-LPE across the MCF7 cells with respective incubation times of 0.5, 1.0, 2.0, and 3.0 hours. […] Further, the fluorescence is indicative that a physical separation between the SWNT and the Rd-LPE has occurred since the quenching effect was not observed.

Compound: CCCCCCCC/C=C\CCCCCCCC(=O)OCC(COP(=O)(O)OCC(O)CO)OC(=O)CCCCCCC/C=C\CCCCCCCC (stereo not shown) [PG 36:2, 1,2-dioleoylphosphatidylglycerol, reference compound]
- solubility of SWNTs provided by the phospholipid [1]: None of the above phospholipids provided good solubility

Compound: CCCCCCCCCCCCCCCC(=O)OCC(COP(=O)(O)OCCN)OC(=O)CCCCCCCCCCCCCCC (stereo not shown) [PE 32:0, 1,2-dipalmityolphosphatidylethanolamine, reference compound]
- solubility of SWNTs provided by the phospholipid [1]: None of the above phospholipids provided good solubility

Compound: lysophosphatidic acid [LPA 16:0]
- solubility of SWNTs provided by the phospholipid [1]: Comparable solubility

Compound: lysophosphatidylcholine [LPC 18:0]
- effectiveness in dispersing SWNTs in PBS relative to SDS, on per molecule basis ([1]; 6,177 g RCF at tip): approximately 2.5 times
- effectiveness in dispersing SWNTs relative to SDS ([1]; 16,060 g RCF at tip): one order of magnitude more effective than SDS
- solubility of SWNTs provided by the phospholipid ([1]; SWNTs in PBS pH=7.4, sonication 1 hr at room temperature): completely solubilized

Compound: rhodamine-lysophosphoethanolamine [Rd-LPE]
- translocation across the cell membrane (intracellular rhodamine fluorescence) (MCF7 cells): minimal Rd-LPE translocation

Compound: CCCCCCCCCCCCCC(=O)OC[C@H](COP(=O)([O-])OCC[N+](C)(C)C)OC(=O)CCCCCCCCCCCCC [PC 24:0, dimyristoyl phosphatidyl choline, reference compound]
- solubility of SWNTs provided by the phospholipid [1]: None of the above phospholipids provided good solubility

Compound: lysophosphatidylglycerol [LPG 18:0]
- solubility of SWNTs compared with SDS [1]: slightly better than SDS
- solubility of SWNTs provided by the phospholipid [1]: Comparable solubility
